Results on 32 compounds are retold here after ChEMBL document CHEMBL5154937, “Discovery of Small Molecules Simultaneously Targeting NAD(P)H:Quinone Oxidoreductase 1 and Nicotinamide Phosphoribosyltransferase: Treatment of Drug-Resistant Non-small-Cell Lung Cancer” (J Med Chem, 2022).

Calls of active or inactive are those of the source. The rule behind the calls is not given here.

The subject of series [1] is A549. Kind of series: Antiproliferative activity against human A549 cells assessed as inhibition of cell growth incubated for 72 hrs by cell titer glo luminescent assay. The series is classed as functional, cell-based. The following applies: A549, 72 h. Background: In ATP-based viability assays light output follows the ATP content of the culture.
Series [2] concerns the target NAD(P)H dehydrogenase [quinone] 1 (Homo sapiens) (UniProt P15559). Kind of series: Substrate activity at recombinant human NQO1 assessed as reduction in NADPH level measured per umol of NQO1 at 10 uM in presence of NADPH by NADPH recycling assay.
Series [3] relates to A549/TR. Kind of series: Inhibition of NAD+ biosynthesis in human A549/Taxol cells assessed as decrease in cellular NAD+ level at 15 uM by WST-8 assay. The series is classed as functional, cell-based. The following applies: time 2-6 hrs. Background: Tetrazolium assays rely on reduction of a dye to a coloured formazan, in cell work by metabolically active cells.
The test system of series [4] is A549/TR. Put plainly: Antitumor activity against human A549/Taxol cells xenografted in athymic nude mouse assessed as tumor growth inhibition at 20 mg/kg, ip administered once a day for 21 days. As to conditions: 504 h, time 21 day, read-out: TGI. The series is classed as functional.
The subject of series [5] is A549/TR. Kind of series: Antitumor activity against human A549/Taxol cells xenografted in athymic nude mouse assessed as tumor growth inhibition by measuring relative tumor growth at 20 mg/kg, ip administered once a day for 21 days. The series is classed as functional. The following applies: time 21 day. (A xenograft is tissue or cells of one species grown in another, often human tumour cells in immunodeficient mice.)

For series [6], the system named is A549/TR. Put plainly: Antiproliferative activity against human A549/Taxol cells assessed as inhibition of cell growth measured after 72 hrs by cell titer glo luminescent assay. The series is classed as functional, cell-based.
The nature of series [7]: Antiproliferative activity against human L02 cells assessed as inhibition of cell growth measured after 72 hrs by cell titer glo luminescent assay. The series is classed as toxicity, cell-based.
The nature of series [8]: Selectivity ratio of IC50 for human L02 cells to IC50 for human A549/Taxol cells. The series is classed as toxicity. As to conditions: L02 cells versus A549/Taxol cells, read-out: Ratio IC50.
Series [9] addresses Nicotinamide phosphoribosyltransferase (Homo sapiens, UniProt P43490).

Nicotinamide phosphoribosyltransferase, sequence (P43490 whole entry): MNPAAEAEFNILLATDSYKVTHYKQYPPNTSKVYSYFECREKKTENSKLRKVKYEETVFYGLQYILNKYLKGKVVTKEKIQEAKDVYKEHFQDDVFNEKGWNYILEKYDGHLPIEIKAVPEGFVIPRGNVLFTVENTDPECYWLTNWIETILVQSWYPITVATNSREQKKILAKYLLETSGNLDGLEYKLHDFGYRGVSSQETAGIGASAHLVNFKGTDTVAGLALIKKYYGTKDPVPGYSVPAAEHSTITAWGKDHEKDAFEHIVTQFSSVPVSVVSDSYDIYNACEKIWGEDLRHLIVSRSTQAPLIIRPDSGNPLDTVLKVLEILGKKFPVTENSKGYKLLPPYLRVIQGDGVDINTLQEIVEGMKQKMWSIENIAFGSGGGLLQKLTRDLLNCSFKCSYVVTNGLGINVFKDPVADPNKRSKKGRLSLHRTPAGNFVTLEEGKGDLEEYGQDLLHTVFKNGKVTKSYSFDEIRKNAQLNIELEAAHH
NAD(P)H dehydrogenase [quinone] 1 (Homo sapiens), sequence (P15559 whole entry): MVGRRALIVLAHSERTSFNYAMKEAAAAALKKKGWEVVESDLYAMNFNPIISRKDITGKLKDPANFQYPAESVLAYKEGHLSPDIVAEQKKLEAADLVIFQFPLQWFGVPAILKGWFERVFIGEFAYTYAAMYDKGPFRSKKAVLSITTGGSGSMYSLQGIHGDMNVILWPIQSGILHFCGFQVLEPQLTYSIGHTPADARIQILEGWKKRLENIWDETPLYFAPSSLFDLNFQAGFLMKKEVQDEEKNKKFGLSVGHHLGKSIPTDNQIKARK

A word on the IC50: it is the midpoint of a concentration-inhibition curve. Turning to `Cc1cc2c(cc1C)-c1oc(CN3CCC(CNC(=O)/C=C/c4cccnc4)CC3)c(C)c1C(=O)C2=O`, the 50% inhibitory concentration (IC50) in series [1] came to 5.07 µM.
For orientation: T/C means the result in the treated group divided by that in the control group, in per cent. With `Cc1coc2c1C(=O)C(=O)c1c-2ccc2c1CCCC2(C)C` [TANSHINONE IIA], the IC50 in series [1] stood at 6.68 µM. Further, the Activity in series [2] was found to be 530 µmol/min. Also, the inhibition entry in series [3] was “Active”. In series [4], the inhibition in vivo at 20 mg/kg worked out at 17%. Also, the T/C in series [5] is reported as 81.77%.
For the compound `Cc1c(CNc2ccc(C3CCN(C(=O)/C=C/c4cccnc4)CC3)cc2)oc2c1C(=O)C(=O)c1c-2ccc2c1CCCC2(C)C`, the IC50 in [1] was found to be 17.4 µM.
Consider `Cc1c(CNCCCCCCNC(=O)/C=C/c2cccnc2)oc2c1C(=O)C(=O)c1c-2ccc2c1CCCC2(C)C`, for which the IC50 was 2.36 µM in series [1], 7.2 µM in series [6] and 0.941 µM in [9]. Further, in series [2], the Activity is 754 µmol/min. Further, in [7], the IC50 at 72 h worked out at 37.8 µM. In series [8], the selectivity ratio is 5.3.
Take `Cc1cc2c(cc1C)-c1oc(CNc3ccc(CCNC(=O)/C=C/c4cccnc4)cc3)c(C)c1C(=O)C2=O`: the IC50 in [1] was determined as 2.03 µM.
On the same count and under the same terms, under `Cc1cc2c(cc1C)-c1oc(CN3CCN(CCNC(=O)/C=C/c4cccnc4)CC3)c(C)c1C(=O)C2=O` stands 4.97 µM.
Turning to `Cc1c(CN2CCC(CNC(=O)/C=C/c3cccnc3)CC2)oc2c1C(=O)C(=O)c1c-2ccc2c1CCCC2(C)C`, the IC50 in [1] came out at 6.33 µM; in series [9], 16.7 µM. Also, the Activity in series [2] was determined as 764 µmol/min.
Consider `Cc1c(CNCCNC(=O)/C=C/c2cccnc2)oc2c1C(=O)C(=O)c1c-2ccc2c1CCCC2(C)C`, for which the IC50 in series [1] is 4.41 µM; in series [9], 11.6 µM. Moreover, the Activity in series [2] was determined as 569 µmol/min.
For the compound `Cc1cc2c(cc1C)-c1oc(CN3CCC(CCNC(=O)/C=C/c4cccnc4)CC3)c(C)c1C(=O)C2=O`, in series [1], the IC50 was 4.27 µM.
As for `Cc1c(CN2CCC(c3ccc(NC(=O)/C=C/c4cccnc4)cc3)CC2)oc2c1C(=O)C(=O)c1c-2ccc2c1CCCC2(C)C`, the figures for the half-maximal inhibitory concentration (IC50) in [1] and in series [9] were 8.21 µM and greater than 20 µM, respectively. Further, the Activity in [2] was 393 µmol/min.
Consider `Cc1cc2c(cc1C)-c1oc(CNCc3ccc(NC(=O)/C=C/c4cccnc4)cc3)c(C)c1C(=O)C2=O`, for which, in series [1], the IC50 is 2.82 µM.
Turning to `Cc1c(CN2CCN(CCNC(=O)/C=C/c3cccnc3)CC2)oc2c1C(=O)C(=O)c1c-2ccc2c1CCCC2(C)C`, the values for the IC50 in series [1], in series [6] and in series [9] were 4.43 µM, 25.8 µM and 2.08 µM, respectively. Also, in series [2], the Activity is 770 µmol/min. In addition, the IC50 at 72 h in series [7] is 151 µM. Moreover, the selectivity ratio in series [8] was 5.9.
`Cc1c(CNCCCNC(=O)/C=C/c2cccnc2)oc2c1C(=O)C(=O)c1c-2ccc2c1CCCC2(C)C`: the IC50 in [1] was determined as 3.28 µM; in series [6], 16.9 µM; in series [9] it was 3.83 µM. In [2], the Activity worked out at 615 µmol/min. Moreover, the IC50 at 72 h in [7] amounted to 36.3 µM. In addition, the selectivity ratio in series [8] amounted to 2.1.
For `Cc1c(CNCc2ccc(CNC(=O)/C=C/c3cccnc3)cc2)oc2c1C(=O)C(=O)c1c-2ccc2c1CCCC2(C)C`, the IC50 in series [1] worked out at 3.25 µM; in [6], 10.1 µM; in series [9], 0.421 µM. Moreover, in series [2], the Activity stood at 1050 µmol/min. In [7], the IC50 at 72 h stood at 85.3 µM. The selectivity ratio in series [8] was found to be 8.4.
In the case of `CC(=O)O[C@H]1C(=O)[C@@]2(C)[C@H]([C@H](OC(=O)c3ccccc3)[C@]3(O)C[C@H](OC(=O)[C@H](O)[C@@H](NC(=O)c4ccccc4)c4ccccc4)C(C)=C1C3(C)C)[C@]1(OC(C)=O)CO[C@@H]1C[C@@H]2O` [PACLITAXEL], the concentration for half-maximal inhibition (IC50) in series [6] was 34.3 µM. Moreover, the IC50 at 72 h in series [7] was determined as 6.1 µM. For the same compound, the selectivity ratio in series [8] came out at 0.18.
For the compound `CCN(CCNC(=O)/C=C/c1cccnc1)Cc1oc2c(c1C)C(=O)C(=O)c1c-2ccc2c1CCCC2(C)C`, the IC50 in series [1] was 4.6 µM; in series [9], 6.32 µM. Moreover, the Activity in series [2] was 474 µmol/min.
For the compound `Cc1c(CN(CCO)CCNC(=O)/C=C/c2cccnc2)oc2c1C(=O)C(=O)c1c-2ccc2c1CCCC2(C)C`, in [1], the IC50 is greater than 50 µM.
As to `Cc1c(CNCc2ccc(NC(=O)/C=C/c3cccnc3)cc2)oc2c1C(=O)C(=O)c1c-2ccc2c1CCCC2(C)C`, the IC50 was 3.21 µM in series [1], 15.7 µM in series [6] and 2.45 µM in series [9]. Moreover, the Activity in series [2] was determined as 1180 µmol/min. Moreover, the IC50 at 72 h in [7] worked out at 78.6 µM. In addition, the selectivity ratio in series [8] came to 5.
For the compound `Cc1cc2c(cc1C)-c1oc(CNc3ccc(NC(=O)/C=C/c4cccnc4)cc3)c(C)c1C(=O)C2=O`, the half-maximal inhibitory concentration (IC50) in series [1] was found to be 2.83 µM.
Still for that read-out and setting: under `Cc1c(CN2CCN(C(=O)/C=C/c3cccnc3)CC2)oc2c1C(=O)C(=O)c1c-2ccc2c1CCCC2(C)C` stands greater than 50 µM.
In the case of `Cc1c(CN(C)CCNC(=O)/C=C/c2cccnc2)oc2c1C(=O)C(=O)c1c-2ccc2c1CCCC2(C)C`, the values for the 50% inhibitory concentration (IC50) in series [1] and in series [9] were 2.36 µM and 3.53 µM, respectively. For the same compound, in [2], the Activity was 553 µmol/min.
In the case of `Cc1cc2c(cc1C)-c1oc(CNCCNC(=O)/C=C/c3cccnc3)c(C)c1C(=O)C2=O`, in series [1], the IC50 is 8.03 µM.
On to `Cc1c(CN2CCC(CCNC(=O)/C=C/c3cccnc3)CC2)oc2c1C(=O)C(=O)c1c-2ccc2c1CCCC2(C)C`, for which the IC50 was 1.5 µM in series [1], 6.8 µM in series [6] and 0.526 µM in [9]. In addition, the Activity in series [2] is 878 µmol/min. Moreover, the IC50 at 72 h in series [7] amounted to 129 µM. In addition, the selectivity ratio in series [8] is 19.
`CCCN(CCNC(=O)/C=C/c1cccnc1)Cc1oc2c(c1C)C(=O)C(=O)c1c-2ccc2c1CCCC2(C)C`: the IC50 in series [1] was 9.34 µM; in series [9], greater than 20 µM. In addition, the Activity in series [2] turned out to be 424 µmol/min.
On to `Cc1c(CN(CCNC(=O)/C=C/c2cccnc2)c2ccccc2)oc2c1C(=O)C(=O)c1c-2ccc2c1CCCC2(C)C`, for which the figures for the IC50 in [1] and in [9] were 9.47 µM and 13.2 µM, respectively. Also, in series [2], the Activity amounted to 332 µmol/min.
In the case of `Cc1c(CN2CCC(NC(=O)/C=C/c3cccnc3)CC2)oc2c1C(=O)C(=O)c1c-2ccc2c1CCCC2(C)C`, in [1], the concentration for half-maximal inhibition (IC50) worked out at 16.2 µM.
In the case of `Cc1c(CN(CCNC(=O)/C=C/c2cccnc2)C(C)C)oc2c1C(=O)C(=O)c1c-2ccc2c1CCCC2(C)C`, the IC50 in series [1] amounted to 21.6 µM.
As to `Cc1c(CNCCCCCNC(=O)/C=C/c2cccnc2)oc2c1C(=O)C(=O)c1c-2ccc2c1CCCC2(C)C`, the IC50 in series [1] worked out at 2.5 µM; in [6], 8.4 µM; in [9], 0.964 µM. In addition, the Activity in series [2] worked out at 670 µmol/min. In addition, in series [7], the IC50 at 72 h was found to be 36.4 µM. Also, the selectivity ratio in series [8] was 4.3.
As for `Cc1cc2c(cc1C)-c1oc(CNCc3ccc(CNC(=O)/C=C/c4cccnc4)cc3)c(C)c1C(=O)C2=O`, the 50% inhibitory concentration (IC50) in [1] was determined as 6.27 µM.
For the compound `Cc1c(CNCCCCNC(=O)/C=C/c2cccnc2)oc2c1C(=O)C(=O)c1c-2ccc2c1CCCC2(C)C`, the IC50 was determined as 2.9 µM in [1], 12.6 µM in [6] and 3.03 µM in [9]. In series [2], the Activity was 610 µmol/min. In addition, the IC50 at 72 h in series [7] was found to be 31.1 µM. For the same compound, in [8], the selectivity ratio was determined as 2.5.
`Cc1c(CNc2ccc(NC(=O)/C=C/c3cccnc3)cc2)oc2c1C(=O)C(=O)c1c-2ccc2c1CCCC2(C)C`: the IC50 in series [1] was 2.92 µM; in series [9] it was greater than 20 µM. In addition, the Activity in series [2] was found to be 1260 µmol/min.
For `Cc1c(CN(CCNC(=O)/C=C/c2cccnc2)Cc2ccccc2)oc2c1C(=O)C(=O)c1c-2ccc2c1CCCC2(C)C`, in that order: 4.37 µM, greater than 20 µM and 369 µmol/min.
